Reference: US5670526A, “1,3,4-oxadiazoles” (Otsuka Pharmaceutical Co., Ltd., priority 1995, dated 1997)

Experiments:
[1] = system: Concanavalin A (ConA)-induced liver injury; assay: Concanavalin A (ConA)-induced liver injury in mice, serum SGOT; assay type: in vivo, C57BL/6 mice; settings: Mus musculus, ip, ConA 15 mg/kg i.v., 17 hours, read-out: SGOT (% decrease); for inhibition in vivo at 50 mg/kg: 50 mg/kg i.p.
Experimental: The following protocol was used for the Concanavalin A (ConA)-induced liver injury in mice. C57BL/6 mice were used. A solution of ConA (Sigma)in PBS was prepared at a concentration of 1.5 mg/ml. The mice were administered, i.p., with […] of a 10% DMSO solution containing varying amounts (adjusted to give 25 mg/kg to 50 mg/kg of compound) of the representative compounds of interest. Fifteen minutes later, the mice were treated via the tail vein with 15 mg/kg of ConA in PBS along with […] of 10% DMSO solution.
The mice were sacrificed after 17 hours and the blood collected into small conical tubes. The tubes were centrifuged and the serum collected and assayed for serum glutamic oxaloacetic transaminase (SGOT) (Sigma GOT kit). The high level enzyme standard (Sigma) was used to make the standard curve, as 100(undiluted), 50, 25, 12.5 and 0 S-F units/mi. Samples were diluted 1:5, 1:25 and 1:125 by adding 25 μl of serum to 100 μl of H2 O and serially diluting 25 μl into 100 μl two more times. Then 100 μl of the Sigma substrate were added to each tube along with 20 μl of each diluted sample and enzyme standard. The tube was incubated in a 37° C. bath with gentle shaking for 1 hour. To that was added […] of colorizing reagent and the tube was left to stand for 30 minutes. Then 500 μl of 0.8N NaOH solution were added, the tubes were capped and inverted to mix thoroughly. A 150 μl aliquot of each sample and 150 μl of the standard were added to wells of a 96-well plate and color formation was monitored at 490 nm. The amounts of SGOT were calculated using a standard curve, converted to Sigma-Frankel units/ml.

[2] = system: Neutrophil migration; assay: Immune complex (BSA/anti-BSA) induced neutrophil migration into mouse skin, myeloperoxidase (MPO) assay; assay type: in vivo, C57BL/6 mouse; settings: for inhibition in vivo at 12.5 mg/site: Mus musculus, Neutrophil, 12.5 mg of drug/site, i.d., 4 hours
Experimental: Neutrophil migration and infiltration into tissue spaces and the effect thereon of the compounds of the instant compounds can be tested. For example, immune complexes can be developed at a subcutaneous or intradermal site to draw neutrophils and the effect of the instant compounds on neutrophil migration can be assessed. A protocol is as follows. Mice are injected IV with bovine serum albumin (BSA). Then the mice are injected intradermally with antibody to BSA. For experimental animals, the test substance is administered concurrently intradermally or subcutaneously at the site of antibody deposition. After about four hours, the animal is sacrificed, the skin at the injection site is removed and then treated appropriately, such as assaying for myeloperoxidase, to determine the extent of neutrophil migration to the injection site.
An i.v. injection of 100 μl of BSA at 10 mg/ml in saline was followed by a 25 μl injection of anti-BSA i.d. on the back side of a pre-shaven C57BL/6 mouse. At time 0, along with the BSA and anti-BSA, the test compound or vehicle was administered i.d. at the site of the antibody injection in a volume of 25 μl (for example, 0.5 mg/μl solution). Four hours post injection, the skin was removed and a myeloperoxidase (MPO) assay performed (Mulligan et al., J. Imm. 151(10): 5666-5674, 1993).
Briefly, the skin sample was placed in a 17×100 mm test tube containing 2 ml of ice cold buffer (PBS, pH 7.4). The sample was ground for 30 seconds and placed on ice. The sample was vortexed for 10 seconds and then sonicated for three minutes in iced water. The sample was frozen in dry ice for 30 minutes. The sample then was thawed rapidly in a water bath for 10 minutes. An aliquot of 1.5 ml was removed and placed in a microfuge tube. The sample was spun at high speed in a cold room for 15 minutes. The sample then was titrated across the wells in a microtiter plate with the first well containing a 1:3 dilution of sample, for example, 50 μl of sample and 150 μl of buffer. Substrate and hydrogen peroxide were added to each well. Following a suitable incubation period, sodium azide was added to the wells and the absorbance monitored in a spectrophotometer at 460 nm. […]

[3] = system: ELAM; assay: ELISA for cell surface molecules: inhibition of ELAM expression on IL-1β stimulated HUVEC's; assay type: cell-based; settings: Homo sapiens; for inhibition at 3 µg/mL: @ 3 μg/ml; for inhibition at 10 µg/mL: @ 10 μg/mL; for inhibition at 1 µg/mL: @ 1 μg/mL
Experimental: (§1) The following were used in an ELISA for cell surface molecules: Costar 96-well TC plates, 2% gelatin, 1% BSA-Dulbecco's PBS w/CaMg^++, IL-1β, primary antibody e.g., 7A9 for ELAM (EP 505749) secondary biotinylated goat anti-mouse IgG/IgM, streptavidin-peroxidase, OPD substrate tablets and 30% hydrogen peroxide.
(§2) To begin, 96-well plates were coated with 2% gelatin (1 hour). The excess gelatin was aspirated from the wells. HUVEC's were seeded at 20,000 cells/well in a 200 μl volume.
(§3) Prior to assay, the test compounds were dissolved in DMSO at a stock concentration of 3 mg/ml. The stock solutions were set at room temperature and observed to see if dissolution was complete. When monolayers reached confluence (24-28 hours after seeding) the test compounds were added to the wells at final concentrations of 10 μg/ml, 3 μg/ml and 1 μg/ml. The plates were incubated for 1 hour at 37° C. Then, IL-1β at a final concentration of 1 μg/ml was added and the plates incubated for 4 hours at 37° C. The supernatant was removed from the plates by flicking into a sink. The wells were washed 3× with 1% BSA-Dulbecco's PBS.
(§4) Primary antibody (7A9 for ELAM or a suitable antibody for VCAM or ICAM) at a concentration of 2.5 μg/ml in a 50 μl volume was added to each well. The plates were incubated at 4° C. for 45 minutes to 1 hour. The wells were washed 3× with 1% BSA Dulbecco's PBS. Secondary antibody (biotinylated goat anti-mouse IgG-IgM, commercially available) at 50 μl/well at a final dilution of 1:1,000 was added to the well and the plates were incubated for 45 minutes to 1 hour at 4° C. The wells were washed 3× with 1% BSA-Dulbecco's PBS.
(§5) Streptavidin-peroxidase at 50 μl/well with a final dilution of 1:3,000 was added to each well and the plates were incubated at 4° C. for 30 minutes. Again the plates were washed 3× with 1% BSA-Dulbecco's PBS.
(§6) Substrate solution (OPD tablets, citric acid buffer and hydrogen peroxide solution) was prepared and added at 100 μl/well. The plates were incubated 15 minutes at room temperature on a plate shaker and the reaction was stopped with 12.5% sulfuric acid. Plates were read for absorbance values at 492 nm.
(§7) The degree of inhibition in expression of ELAM or VCAM by a compound of the instant invention is manifest as a decrease in specific primary antibody binding. In the following table the IC50 values are provided using a representative sampling of compounds of the instant invention.

[4] = system: VCAM; assay: ELISA for cell surface molecules: inhibition of VCAM expression on IL-1β stimulated HUVEC's; assay type: cell-based; settings: Homo sapiens; for inhibition at 3 µg/mL: @ 3 μg/ml; for inhibition at 10 µg/mL: @ 10 μg/mL; for inhibition at 1 µg/mL: @ 1 μg/mL
Experimental: as §1, §2, §3, §4, §5, §6, §7

[5] = system: Concanavalin A (ConA)-induced liver injury; assay: Concanavalin A (ConA)-induced liver injury in mice, serum SGOT; assay type: in vivo, C57BL/6 mice; settings: Mus musculus, ip; 20 mg/kg i.p.; ConA 15 mg/kg i.v., 17 hours; read-out: SGOT (% decrease)

Structure (SMILES) | inhibition in vivo at 50 mg/kg [1] | inhibition in vivo at 12.5 mg/site [2] | inhibition at 3 µg/mL [4] | other results
COc1c(C)cnc(CSc2nnc(C)o2)c1C [Compound 16, 2-(3,5-dimethyl-4-methoxy-2-pyridyl)methylthio-5-methyl-1,3,4-oxadiazole] | 85% | – | – | –
COc1ccnc2c1CCCCC2Sc1nnc(C)o1 (stereo not drawn) [Compound 19] | 87% | – | – | –
COc1c(C)cnc(CSc2nnc(-c3cccs3)o2)c1C [Compound 35] | 45% | – | – | –
c1ccc(CSc2nnc(-c3ccccn3)o2)cc1 [Compound 44] | – | – | – | inhibition in vivo at 25 mg/kg ([1]; 25 mg/kg i.p.): 86%
c1ccc(CSc2nnc(-c3cccnc3)o2)cc1 [Compound 48] | 51% | – | – | –
COc1c(C)cnc(CSc2nnc(-c3ccccc3O)o2)c1C [Compound 60] | 60% | – | – | –
COc1c(C)cnc(CSc2nnc(-c3nc(-c4ccccc4)cs3)o2)c1C [Compound 67] | 55% | – | – | –
c1ccc(CSc2nnc(-c3nc(-c4ccccc4)cs3)o2)cc1 [Compound 68] | – | – | – | decrease in MPO activity ([2]; test compound i.d. at site of antibody injection, 4 hours post injection): 55-60%
COc1ccnc2c1CCCCC2Sc1nnc(-c2nc(-c3ccccc3)cs2)o1 (stereo not drawn) [Compound 69] | 30% | – | – | –
COc1c(C)cnc(C[S+]([O-])c2nnc(C)o2)c1C (stereo not drawn) [Compound 70, 2-(3,5-dimethyl-4-methoxy-2-pyridyl)methylsulfinyl-5-methyl-1,3,4-oxadiazole] | 82% | 55% | 65% | inhibition at 3 µg/mL [3]: 55%
Cc1nnc([S+]([O-])Cc2ccccn2)o1 (stereo not drawn) [Compound 71] | – | 40% | 40% | inhibition at 3 µg/mL [3]: 30%
Cc1nnc([S+]([O-])Cc2ccccc2)o1 (stereo not drawn) [Compound 72] | – | – | 25% | inhibition at 3 µg/mL [3]: 15%
COc1ccnc2c1CCCCC2[S+]([O-])c1nnc(C)o1 (stereo not drawn) [Compound 73] | – | – | – | inhibition at 10 µg/mL [3]: 20%; inhibition at 10 µg/mL [4]: 20%
Cc1nnc([S+]([O-])Cc2nccn2Cc2ccccc2)o1 (stereo not drawn) [Compound 75] | – | 20% | 100% | inhibition at 3 µg/mL [3]: 55%
Cc1nnc([S+]([O-])Cc2ncn(Cc3ccccc3)c2C)o1 (stereo not drawn) [Compound 76] | – | 20% | – | –
CCc1nnc([S+]([O-])Cc2ncc(C)c(OC)c2C)o1 (stereo not drawn) [Compound 79] | – | – | 50% | inhibition at 3 µg/mL [3]: 35%
CCCc1nnc([S+]([O-])Cc2ncc(C)c(OC)c2C)o1 (stereo not drawn) [Compound 80] | – | – | 70% | inhibition at 3 µg/mL [3]: 45%

Structure (SMILES) | inhibition in vivo at 50 mg/kg [1] | inhibition in vivo at 12.5 mg/site [2] | inhibition at 3 µg/mL [4] | other results
CCCCc1nnc([S+]([O-])Cc2ncc(C)c(OC)c2C)o1 (stereo not drawn) [Compound 81] | – | – | 20% | –
COc1c(C)cnc(C[S+]([O-])c2nnc(-c3ccccc3)o2)c1C (stereo not drawn) [Compound 85] | – | 25% | 100% | –
COc1c(C)cnc(C[S+]([O-])c2nnc(-c3cccs3)o2)c1C (stereo not drawn) [Compound 89] | 95% | – | – | inhibition at 1 µg/mL [3]: 25%; inhibition at 1 µg/mL [4]: 60%
[O-][S+](Cc1ccccc1)c1nnc(-c2cccs2)o1 (stereo not drawn) [Compound 91] | – | 40% | – | inhibition at 1 µg/mL [3]: 20%; inhibition at 1 µg/mL [4]: 20%
[O-][S+](Cc1ccccn1)c1nnc(-c2ccncc2)o1 (stereo not drawn) [Compound 92] | – | 60% | 100% | –
[O-][S+](Cc1ccccn1)c1nnc(-c2ccccn2)o1 (stereo not drawn) [Compound 96] | – | 70% | – | inhibition at 1 µg/mL [3]: 50%; inhibition at 1 µg/mL [4]: 50%
[O-][S+](Cc1ccccc1)c1nnc(-c2ccccn2)o1 (stereo not drawn) [Compound 97] | – | 80% | – | inhibition in vivo at 20 mg/kg [5]: 45%; inhibition at 1 µg/mL [3]: 50%; inhibition at 1 µg/mL [4]: 55%
[O-][S+](Cc1ccccn1)c1nnc(-c2cccnc2)o1 (stereo not drawn) [Compound 100] | – | 60% | 80% | –
[O-][S+](Cc1ccccc1)c1nnc(-c2cccnc2)o1 (stereo not drawn) [Compound 101] | 68% | 50% | – | inhibition at 10 µg/mL [3]: 75%; inhibition at 10 µg/mL [4]: 40%
[O-][S+](Cc1ccccn1)c1nnc(C23CC4CC(CC(C4)C2)C3)o1 (stereo not drawn) [Compound 102] | – | 25% | 30% | –
[O-][S+](Cc1ccccc1)c1nnc(-c2cc(-c3ccccc3)nc3ccccc23)o1 (stereo not drawn) [Compound 106] | – | – | 10% | –
COc1c(C)cnc(C[S+]([O-])c2nnc(-c3cccn3C)o2)c1C (stereo not drawn) [Compound 112] | – | – | – | inhibition at 1 µg/mL [3]: 25%; inhibition at 1 µg/mL [4]: 65%
COc1c(C)cnc(C[S+]([O-])c2nnc(-c3ccccc3O)o2)c1C (stereo not drawn) [Compound 113] | 80% | 20% | – | inhibition at 1 µg/mL [3]: 30%; inhibition at 1 µg/mL [4]: 50%
[O-][S+](Cc1ccccc1)c1nnc(-c2ccccc2O)o1 (stereo not drawn) [Compound 114] | – | – | – | inhibition at 1 µg/mL [3]: 20%; inhibition at 1 µg/mL [4]: 25%
COc1c(C)cnc(C[S+]([O-])c2nnc(-c3cccc(C(F)(F)F)c3)o2)c1C (stereo not drawn) [Compound 116] | – | – | 25% | –
COc1c(C)cnc(C[S+]([O-])c2nnc(-c3ccc(C(F)(F)F)cc3)o2)c1C (stereo not drawn) [Compound 117] | – | – | 15% | –
[O-][S+](Cc1ccccc1)c1nnc(-c2nc(-c3ccccc3)cs2)o1 (stereo not drawn) [Compound 121] | – | – | 50% | –
